Test results as given in patent US9339508B2, “Use of 3-methoxy-pregnenolone for the preparation of a drug for treating a traumatic brain injury” (MAPREG, priority 2003, dated 2016).

How the values were obtained:
[1] = molecular target: purified tubulin and MAP2 (Homo sapiens, UniProt P11137); experiment: MAP2-induced polymerization of microtubules in vitro (optical density at 345 nm); type: biochemical
Description: Purified MAP2 and tubulin are mixed in the presence of GTP at 4° C. in a spectrophotometer cuvette. Polymerization is induced by heating at 37° C. and is followed by the increase in optical density (OD) which indicates the quantity of polymers formed.
This in vitro test measures the effect of molecules on the MAP2-induced polymerization of microtubules. This polymerization occurs when MAP2 proteins and tubulin are mixed at adequate concentrations in the presence of GTP. It is accompanied by an increase in optical density measured at 345 nm for 15 to 30 minutes with a UNICON spectrophotometer thermostated at 37° C. (FIG. 1).
Activity is measured by the increase in optical density at 345 nm of a mixture of purified tubulin and MAP2, incubated at 37° C. in the presence of GTP.

PC12 cell line = experiment: Cellular toxicity on the PC12 cell line; type: cell-based, rat; conditions: concentrations as high as solubility limits
Description: Cellular toxicity tests are carried out routinely on the PC12 cell line.

CCI traumatized animals = experiment: Water Exploration Test (WET) after Controlled Cortical Impact (CCI); type: in vivo, rat; set-up: key to Entry number in CZ, Conclusion vs. CCI-D0: ↓: decrease of analyzed variable with p < 0.05; ?: stability of analyzed variable; ↑↑: increase in analyzed variable with p < 0.01; conditions: Day 27; 20 mg/kg (CCI-D2)
Description: (§1) CCI was performed with an electromagnetic impact device as described (MyNeurolab, St. Louis, Mo.; Brody et al, 2007). Anesthesized rats were subjected to a single right lateral CCI, with the following parameters impact centered 4.0 mm anterior to lambda and 4.5 mm […] of midline, within the craniotomy of the animal. The impact was set at a velocity of 4 m/s with a sustained depression of 200 ms, using a 5.0 mm tip.
The less anxious is a rat, the more time it will, spend “floating” (null velocity) in the central zone (see Fares-2009).
More precisely, a circular tank (180 cm diameter, 60 cm high) is filled with water maintained at 27° C. to a depth of 40 cm. The water is made opaque by adding black gouache, allowing the VideoTrack system (ViewPoint) to detect the white-coloured rat. This tank is divided into 4 identical quadrants (6,358 cm2 each) using two 180 cm long opaque plastic separators. In each quadrant, one rat is introduced with its head facing the corner between the separator and the tank's wall. It is noteworthy to emphasize that 4 rats can be tested simultaneously using the 4 quadrants. […] Thus, the distance, the number of entries, the time spent, and the velocity profile in the CZ are measured to assess anxiety-like behaviour. […]
The effect of 3-methoxy-PREG (MAP4343) on anxiety induced by trauma was analyzed using the WET test.

CCI injured hippocampi = experiment: Histological analysis of the hippocampus size after CCI; type: in vivo, rat; conditions: day 35, 10 mg/kg and 20 mg/kg, first injection 2 h after TBI
Description: as §1
Frozen sections were stained with cresyl violet. For each section analyzed, the size of the hippocampus was determined by first outlining all remaining tissue of each section taken at 500 μm intervals through the lesion (right hemisphere) or contra lateral hemisphere, thus providing a total tissue area (mm2) of the two hemispheres for each section. Then, the areas of sections were summed per hemisphere.

Synaptophysin = experiment: Western blot of synaptophysin in cortex and hippocampus after CCI; type: in vivo, rat; conditions: day 35, 20 mg/kg, first injection 2 h post-trauma, injured hippocampus
Description: as §1
Samples were analyzed by Western-blot at day 35 post-trauma (D35) to evaluate the effects of MAP4343 on: MAP2 (the target of MAP4343 and a modulator of microtubule function), the post-synaptic markers PSD95 and spinophilin, the pre-synaptic marker synaptophysin, and the axonal growth/integrity marker […].
Western blot was performed on cortex and hippocampus of TBI-injured animals receiving the first injection of MAP4343 (at 10 mg/kg or 20 mg/kg) or vehicle (sesame oil) 2 h after injury.
The expression level of various neuronal brain markers of plasticity was measured at day 35 post-trauma by western-blots in the cortex and hippocampus of left uninjured and right injured cerebral hemispheres of CCI traumatized animals receiving either vehicle (sesame oil, CCI-D0) or 3-methoxy-PREG (MAP4343) at 10 mg/kg (CCI-D1) or 20 mg/kg (CCI-D2), with first MAP4343 injection 2 h post-trauma.

[2] = Neurosteroids and 43B levels in rat plasma and hippocampus; conditions: 3 h after 10 mg/kg subcutaneously
[3] = 40 μM, compared to solvent alone

Sequence of purified tubulin and MAP2 (P11137 whole entry): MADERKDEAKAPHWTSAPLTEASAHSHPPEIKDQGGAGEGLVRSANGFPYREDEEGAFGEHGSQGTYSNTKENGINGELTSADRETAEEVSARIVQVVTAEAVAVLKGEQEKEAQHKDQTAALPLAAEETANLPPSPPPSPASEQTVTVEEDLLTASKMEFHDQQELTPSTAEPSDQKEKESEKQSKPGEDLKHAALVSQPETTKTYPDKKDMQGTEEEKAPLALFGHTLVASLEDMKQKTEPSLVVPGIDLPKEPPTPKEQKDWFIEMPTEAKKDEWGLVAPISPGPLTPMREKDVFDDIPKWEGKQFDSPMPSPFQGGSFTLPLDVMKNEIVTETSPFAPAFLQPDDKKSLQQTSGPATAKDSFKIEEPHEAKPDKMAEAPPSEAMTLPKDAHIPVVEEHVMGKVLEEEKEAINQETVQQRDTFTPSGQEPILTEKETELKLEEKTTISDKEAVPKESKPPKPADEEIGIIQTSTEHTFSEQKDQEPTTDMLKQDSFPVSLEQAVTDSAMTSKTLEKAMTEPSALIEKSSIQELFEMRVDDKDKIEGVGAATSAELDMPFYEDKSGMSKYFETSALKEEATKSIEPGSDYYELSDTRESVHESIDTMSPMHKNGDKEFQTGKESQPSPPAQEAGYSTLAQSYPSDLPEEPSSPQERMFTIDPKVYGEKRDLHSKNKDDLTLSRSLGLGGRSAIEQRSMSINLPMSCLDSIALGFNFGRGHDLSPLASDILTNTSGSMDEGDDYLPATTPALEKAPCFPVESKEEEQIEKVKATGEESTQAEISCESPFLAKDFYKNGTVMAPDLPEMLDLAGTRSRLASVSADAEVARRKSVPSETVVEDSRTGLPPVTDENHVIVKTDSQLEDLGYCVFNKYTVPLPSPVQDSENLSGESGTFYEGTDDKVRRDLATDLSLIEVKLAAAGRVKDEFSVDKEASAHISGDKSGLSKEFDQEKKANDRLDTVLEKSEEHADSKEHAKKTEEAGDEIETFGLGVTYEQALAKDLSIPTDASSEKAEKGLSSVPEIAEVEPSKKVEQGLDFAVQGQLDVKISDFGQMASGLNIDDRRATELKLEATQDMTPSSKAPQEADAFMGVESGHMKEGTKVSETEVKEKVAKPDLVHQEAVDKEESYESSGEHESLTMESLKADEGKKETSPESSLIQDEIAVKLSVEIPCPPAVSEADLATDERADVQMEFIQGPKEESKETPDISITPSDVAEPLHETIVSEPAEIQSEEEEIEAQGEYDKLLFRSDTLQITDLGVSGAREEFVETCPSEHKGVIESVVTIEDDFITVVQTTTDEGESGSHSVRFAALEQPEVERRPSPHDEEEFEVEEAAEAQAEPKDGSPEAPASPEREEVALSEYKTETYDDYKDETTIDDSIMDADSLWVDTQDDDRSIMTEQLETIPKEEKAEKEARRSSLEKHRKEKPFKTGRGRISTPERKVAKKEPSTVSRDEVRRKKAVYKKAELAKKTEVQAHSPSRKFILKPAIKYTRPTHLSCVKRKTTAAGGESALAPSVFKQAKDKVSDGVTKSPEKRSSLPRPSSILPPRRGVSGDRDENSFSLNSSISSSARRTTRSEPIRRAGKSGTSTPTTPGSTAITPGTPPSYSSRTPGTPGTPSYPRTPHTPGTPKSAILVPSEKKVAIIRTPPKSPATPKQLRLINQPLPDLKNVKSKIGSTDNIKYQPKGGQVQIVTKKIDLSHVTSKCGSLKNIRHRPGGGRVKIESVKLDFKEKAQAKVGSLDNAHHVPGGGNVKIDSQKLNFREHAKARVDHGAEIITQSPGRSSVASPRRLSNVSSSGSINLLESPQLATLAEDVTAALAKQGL

For CO[C@H]1CC[C@@]2(C)C(=CC[C@H]3[C@@H]4CC[C@H](C(C)=O)[C@@]4(C)CC[C@@H]32)C1 [3-methoxy-PREG, 3β-methoxy-pregna-5-ene-20-one], the microtubule polymerization [1] was “activates microtubule polymerization”, the “Lag time of microtubule polymerization” value [1, 3] was “decreased” and the “polymerization rate and quantity of microtubules” value [1, 3] was “clearly increase”. For the same molecule, the cellular toxicity (PC12 cell line) was “do not demonstrate toxicity”, the “Entry number in CZ, Conclusion vs. CCI-D0” value (CCI traumatized animals) was “↑↑” and the “Time spent in CZ, Conclusion vs. CCI-D0” value (CCI traumatized animals) was “↑”. The “size of the injured hippocampus” value (CCI injured hippocampi) was “significantly increases the size of the injured hippocampus”, the Synaptophysin expression (Synaptophysin) was “increase in Synaptophysin expression in injured hippocampus” and the “conversion to PREG or PROG” value [2] was “not converted back to PREG or metabolized to PROG”.
